Assay results published in PubChem BioAssay (NCI).
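Test compounds were applied to cells in 96-well plates for 48 hours at 5 doses. TGI: concentration producing complete growth inhibition.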

Legend:
Test in all cases: inhibition of tumour cell growth, NCI panel, 48 h
[1] = tested on: SF-295 CNS
[2] = tested on: HS 578T breast
[3] = tested on: SR leukemia
[4] = tested on: M14 melanoma
[5] = tested on: 786-0 renal
[6] = tested on: HOP-92 NSCLC
[7] = tested on: HL-60(TB) leukemia
[8] = tested on: PC-3 prostate
[9] = tested on: MOLT-4 leukemia
[10] = tested on: HCT-116 colon
[11] = tested on: RXF 393 renal
[12] = tested on: MDA-MB-231 breast
[13] = tested on: NCI-H460 lung
[14] = tested on: T-47D breast
[15] = tested on: OVCAR-3 ovarian
[16] = tested on: BT-549 breast
[17] = tested on: SNB-19 CNS
[18] = tested on: UO-31 renal
[19] = tested on: MALME-3M melanoma
[20] = tested on: A498 renal
[21] = tested on: SK-OV-3 ovarian
[22] = tested on: IGROV1 ovarian
[23] = tested on: ACHN renal
[24] = tested on: MDA-MB-435
[25] = tested on: CAKI-1 renal
[26] = tested on: SF-539 CNS
[27] = tested on: EKVX NSCLC
[28] = tested on: SW-620 colon
[29] = tested on: MCF7 breast
[30] = tested on: SNB-75 CNS
[31] = tested on: NCI-H226 lung
[32] = tested on: KM12 colon
[33] = tested on: HT29 colon
[34] = tested on: DU-145 prostate
[35] = tested on: K-562 leukemia
[36] = tested on: OVCAR-8 ovarian
[37] = tested on: SF-268 CNS
[38] = tested on: SK-MEL-2 melanoma
[39] = tested on: SK-MEL-28 melanoma
[40] = tested on: HCT-15 colon
[41] = tested on: LOX IMVI melanoma
[42] = tested on: NCI-H23 lung
[43] = tested on: OVCAR-4 ovarian
[44] = tested on: HOP-62 NSCLC
[45] = tested on: OVCAR-5 ovarian
[46] = tested on: UACC-257 melanoma
[47] = tested on: SN12C renal
[48] = tested on: A549 NSCLC
[49] = tested on: U251 CNS
[50] = tested on: NCI/ADR-RES ovarian
[51] = tested on: TK-10 renal
[52] = tested on: HCC-2998 colon
[53] = tested on: UACC-62 melanoma
[54] = tested on: MDA-N

c1ccc2c(-c3csc(-c4c[nH]c5ccccc45)n3)c[nH]c2c1
TGI [1]: > 89.1 µM | TGI [2]: > 100 µM | TGI [3]: > 74.6 µM | TGI [4]: > 100 µM | TGI [5]: > 100 µM | TGI [6]: > 100 µM | TGI [7]: 47.6 µM | TGI [8]: > 100 µM | TGI [9]: 41.4 µM | TGI [10]: > 100 µM | TGI [11]: > 100 µM | TGI [12]: > 100 µM | TGI [13]: > 100 µM | TGI [14]: > 100 µM | TGI [15]: > 100 µM | TGI [16]: > 100 µM | TGI [17]: > 100 µM | TGI [18]: > 100 µM | TGI [19]: > 100 µM | TGI [20]: > 100 µM | TGI [21]: > 100 µM | TGI [22]: > 100 µM | TGI [23]: > 100 µM | TGI [24]: > 100 µM | TGI [25]: > 100 µM | TGI [26]: > 100 µM | TGI [27]: > 100 µM | TGI [28]: > 100 µM | TGI [29]: > 100 µM | TGI [30]: > 79.1 µM | TGI [31]: > 100 µM | TGI [32]: > 100 µM | TGI [33]: > 83.6 µM | TGI [34]: > 100 µM | TGI [35]: 15.1 µM | TGI [36]: > 100 µM | TGI [37]: > 100 µM | TGI [38]: > 100 µM | TGI [39]: > 100 µM | TGI [40]: > 100 µM | TGI [41]: > 100 µM | TGI [42]: > 100 µM | TGI [43]: > 100 µM | TGI [44]: > 100 µM | TGI [45]: > 100 µM | TGI [46]: > 100 µM | TGI [47]: > 100 µM | TGI [48]: > 100 µM | TGI [49]: > 100 µM | TGI [50]: > 100 µM | TGI [51]: > 100 µM | TGI [52]: > 100 µM | TGI [53]: > 100 µM | TGI [54]: > 100 µM
